Reference: patent publication US12252469B2, “Crystalline forms of (E)-N-hydroxy-3-(1-(phenylsulfonyl)indolin-5-yl)acrylamide” (ANBOGEN THERAPEUTICS INC., priority 2023, dated 2025)
≈ marks a conversion by molar mass, not a printed value.

Columns and labels:
Assay type in all cases: physicochemical
[1] = Approximate solubility of starting material in 20 solvents at RT
Experimental: (peak) with one exotherm at 166.1° C. (peak). Approximate solubility of starting material was determined in 20 solvents at RT. Approximately 2 mg of sample was added into a 3-mL glass vial. Solvents in Table 2 were then added stepwise into the vials until the solids were dissolved visually or a total volume of 2 mL was reached. Solubility results summarized in Table 2 were used to guide the solvent selection in screening experiment design.

[2] = Heating experiment of Type A (XRPD)
[3] = Competitive slurry, inter-conversion of Type A and Type B; conditions: t-Butanol and t-Butanol/H2O, RT; water activity calculated from KF by COSMOlogic

## O=C(/C=C/c1ccc2c(c1)CCN2S(=O)(=O)c1ccccc1)NO [Type A, (E)-N-hydroxy-3-(1-(phenylsulfonyl)indolin-5-yl) acrylamide]
[1]; THE (as stored; likely THF), organic solvent or mixture, thermodynamic from solid, THE, RT
  solubility: > 44000 µg/mL
[1]; organic solvent or mixture, thermodynamic from solid, 1,4-Dioxane, RT
  solubility: 21000 to 42000 µg/mL (≈ 61 to 122 mM)
[1]; organic solvent or mixture, thermodynamic from solid, 2-MeTHF, RT
  solubility: 2000 to 5000 µg/mL (≈ 5.81 to 14.5 mM)
[1]; organic solvent or mixture, thermodynamic from solid, ACN, RT
  solubility: 9500 to 19000 µg/mL (≈ 27.6 to 55.2 mM)
[1]; organic solvent or mixture, thermodynamic from solid, Acetone, RT
  solubility: > 40000 µg/mL
[1]; organic solvent or mixture, thermodynamic from solid, CHCl3, RT
  solubility: < 1000 µg/mL
[1]; organic solvent or mixture, thermodynamic from solid, DCM, RT
  solubility: 1000 to 2000 µg/mL (≈ 2.9 to 5.81 mM)
[1]; organic solvent or mixture, thermodynamic from solid, DMAc, RT
  solubility: > 40000 µg/mL
[1]; organic solvent or mixture, thermodynamic from solid, DMSO, RT
  solubility: > 40000 µg/mL
[1]; organic solvent or mixture, thermodynamic from solid, EtOAc, RT
  solubility: 2000 to 5000 µg/mL (≈ 5.81 to 14.5 mM)
[1]; organic solvent or mixture, thermodynamic from solid, EtOH, RT
  solubility: 5500 to 11000 µg/mL (≈ 16 to 31.9 mM)
[1]; organic solvent or mixture, thermodynamic from solid, IPA, RT
  solubility: 2000 to 5000 µg/mL (≈ 5.81 to 14.5 mM)
[1]; organic solvent or mixture, thermodynamic from solid, IPAc, RT
  solubility: < 1100 µg/mL
[1]; organic solvent or mixture, thermodynamic from solid, MIBK, RT
  solubility: 2000 to 5000 µg/mL (≈ 5.81 to 14.5 mM)
[1]; organic solvent or mixture, thermodynamic from solid, MTBE, RT
  solubility: < 1000 µg/mL
[1]; organic solvent or mixture, thermodynamic from solid, MeOH, RT
  solubility: 20000 to 40000 µg/mL (≈ 58.1 to 116 mM)
[1]; organic solvent or mixture, thermodynamic from solid, NMP, RT
  solubility: > 40000 µg/mL
[1]; organic solvent or mixture, thermodynamic from solid, Toluene, RT
  solubility: < 1000 µg/mL
[1]; organic solvent or mixture, thermodynamic from solid, n-Heptane, RT
  solubility: < 1000 µg/mL
[1]; water, thermodynamic from solid, H2O, RT
  solubility: < 1000 µg/mL
[2]; heated to 100° C. and cooled to RT
  form after heating (XRPD): no form change
[2]; heated to 122° C./130° C. and cooled to RT
  form after heating (XRPD): converted to a new form, named as Type B
[3]
  water activity at which the form was obtained in competitive slurry: ≥ 0.37
